Measured values reported in paper PMC9137581, “Identification of a Novel Class of Anti-Melanogenic Compounds, (Z)-5-(Substituted benzylidene)-3-phenyl-2-thioxothiazolidin-4-one Derivatives, and Their Reactive Oxygen Species Scavenging Activities” (Antioxidants, 2022).

How the values were obtained:
mushroom tyrosinase [1] = target: T1, mushroom tyrosinase (Agaricus bisporus, UniProt C7FF04); test: Kinetic studies of mushroom tyrosinase inhibition (L-DOPA; Lineweaver–Burk and Dixon plots); type: biochemical; conditions: for mode of action (type of inhibition): Lineweaver–Burk plots; for Ki: determined using Dixon plots, L-DOPA substrate
T1 construct: purchased Sigma-Aldrich
Experimental: The Michael constants (KM), inhibition constants (Ki), and Lineweaver–Burk and Dixon plots of the analogs were used in order to determine their modes of action. […] The initial rates of dopachrome production in the reaction mixtures were calculated by measuring the increases in absorbance at 492 nm (ΔOD492/min) using a microplate reader (VersaMax™, Molecular Devices, Sunnyvale, CA, USA). The maximal reaction velocity (Vmax) was determined using Lineweaver–Burk plots (plots of the inverse of the reaction rate (1/V) versus the inverse of the substrate concentration (1/[S])) that were obtained using six different L-DOPA concentrations. The mode of action of each analog was determined using the convergence point of the four plot lines.
. Lineweaver–Burk plots were used in order to determine the modes of action of these four analogs (Figure 4). Mushroom tyrosinase inhibition plots were obtained using six different L-DOPA (substrate) concentrations and four different concentrations of each analog. […] On the other hand, the Michaelis–Menten constants (KM) increased upon the increase of the analogs’ concentrations (Table 3). The KM values of the analogs were 1.042, 1.193, 1.433, and 2.159 mM at analog 1 concentrations of 0, 1, 2, and 4 µM; 1.077, 2.117, 2.899, and 4.865 mM at analog 2 concentrations of 0, 2.5, 5, and 10 µM; […]; and 1.030, 1.243, 1.531, and 1.885 mM at analog 6 concentrations of 0, 1, 2, and 4 µM. The mean of the Vmax values that were determined from the Lineweaver–Burk plots was 0.0171 mM/min. In order to determine the inhibition constants (Ki) for the mushroom tyrosinase–analog complexes, the Lineweaver–Burk plots were converted into their corresponding Dixon plots (Figure 5), in which 1/V (where V is the initial reaction velocity) was plotted against the inhibitor concentration [I] at different L-DOPA [S] concentrations.
Target sequence in this assay (C7FF04 1-392): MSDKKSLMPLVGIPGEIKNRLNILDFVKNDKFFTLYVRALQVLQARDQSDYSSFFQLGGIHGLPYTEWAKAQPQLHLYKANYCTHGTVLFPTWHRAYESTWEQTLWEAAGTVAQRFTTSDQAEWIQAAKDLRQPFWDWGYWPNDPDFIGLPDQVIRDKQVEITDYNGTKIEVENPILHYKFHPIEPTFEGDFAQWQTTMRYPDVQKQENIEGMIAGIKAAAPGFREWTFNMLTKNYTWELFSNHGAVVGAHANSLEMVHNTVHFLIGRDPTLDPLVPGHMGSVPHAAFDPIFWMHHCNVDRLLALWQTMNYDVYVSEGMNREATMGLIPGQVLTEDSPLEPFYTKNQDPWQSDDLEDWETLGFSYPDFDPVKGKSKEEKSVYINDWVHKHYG

[2] = DPPH radical scavenging activity assay; conditions: 1 mM, 30 min in the dark
Experimental: The effects of the (Z)-BPTT analogs 1–13 on DPPH radical scavenging activities were investigated as previously described with slight modification. Briefly, 180 μL of 0.2 mM DPPH in methanol was added to 96-well plates and then 20 μL of one of the (Z)-BPTT analogs 1–13 (10 mM in DMSO) or the positive control (10 mM L-ascorbic acid in distilled water) was added and mixed. The 96-well plates were incubated in the dark for 30 min and then the well optical densities were measured at 517 nm using a VersaMax™ microplate reader (Molecular Devices, Sunnyvale, CA, USA). All of these experiments were performed independently in triplicate. The DPPH radical scavenging activities of the analogs were calculated using the following formula:Scavenging activity (%) = (Ac − As) × 100/Ac where Ac is the optical density of the non-treated control and As is the optical density of the tested material.
The DPPH (2,2-diphenyl-1-picrylhydrazyl) radical scavenging abilities of the (Z)-BPTT analogs were investigated using L-ascorbic acid (vitamin C) as a positive control. The final concentrations of the analogs and of the positive control in the test samples and in the DPPH methanol solution were 1 and 0.18 mM, respectively. The scavenging activities of the analogs were assessed by measuring their optical densities at 517 nm after standing the samples in the dark for 30 min.

[3] = ABTS free radical scavenging activity assay; conditions: 100 µM, 2 min in the dark
Experimental: ABTS free radical scavenging activity was used to evaluate the antioxidant activities of analogs 1–13, as previously described. […] This ABTS free radical solution was then diluted with absolute methanol to an absorbance of 0.70 ± 0.02 at 734 nm. Aliquots (10 µL) of the test samples (10% DMSO + 90% EtOH) were added at a final concentration of 100 µM to 90 µL of the diluted ABTS free radical solution and incubated for 2 min in the dark at room temperature. Absorbances were then measured at 734 nm using a VersaMax™ microplate reader (Molecular Devices, Sunnyvale, CA, USA). The ABTS free radical scavenging activities of the test analogs were calculated using the following formula:Scavenging activity (%) = (Ac − As) × 100/Ac where Ac is the optical density of the non-treated control and As is the optical density of the tested material.
The effects of analogs 1–13 on ABTS (2,2′-azino-bis(3-ethylbenzothiazoline-6-sulfonic acid)) free radical scavenging activity were investigated using trolox as a positive reference control. The concentrations of the analogs and trolox in the test samples were 100 µM. The free radical scavenging activities were assessed by measuring the optical densities at 734 nm after standing in the dark for 2 min. […] Analogs 7–10, with no hydroxyl groups on the β-phenyl ring, had weak ABTS and DPPH radical scavenging activities.

mushroom tyrosinase [4] = target: T1, mushroom tyrosinase; test: Mushroom tyrosinase inhibition assay (L-tyrosine substrate); type: biochemical; conditions: for IC50: L-tyrosine substrate, means ± SEMs of triplicate determinations; for potency of mushroom tyrosinase inhibition relative to kojic acid: ratio of IC50 values versus kojic acid
Experimental: In order to examine the inhibitory effect of the (Z)-BPTT analogs on tyrosinase activity, commercially available mushroom tyrosinase (Sigma-Aldrich, St. Louis, MO, USA) was used. The mushroom tyrosinase-inhibitory activities of the analogs were determined as described previously with modification. Briefly, 20 µL (20 units) of an aqueous mushroom tyrosinase solution was added to each well of a 96-well microplate containing 170 µL of a substrate mixture consisting of 345 μM of L-tyrosine solution, 17.2 mM phosphate buffer (pH 6.5), and 10 µL of a (Z)-BPTT analog solution at different concentrations or 10 µL of a kojic acid solution (2, 10, or 50 μM). After incubating the assay mixtures for 30 min at 37 °C, the remaining tyrosinase activities were calculated from the amounts of dopachrome that were formed as determined by measuring their absorbance at 492 nm using a microplate reader (VersaMax™, Molecular Devices, Sunnyvale, CA, USA). The curves of the IC50 values that were derived from the X-axis of the inhibitor concentration versus the amount of product that was produced were determined by aligning the dose–response curve with the Y-axis. Inhibition experiments were performed in triplicate using three to six different concentrations of the (Z)-BPTT analogs or kojic acid. Log–linear curves and their equations were determined by using inhibition percentages at three to six analog concentrations. The individual IC50 values were determined by reading the concentrations on the Y-axis at 50% inhibition. The results are the means of three independent experiments.
The tyrosinase-inhibitory activities were screened against mushroom tyrosinase using L-tyrosine as a substrate, as previously described. Kojic acid, a representative tyrosinase inhibitor, was used as a positive control. […]. All 13 of the (Z)-BPTT analogs inhibited tyrosinase activity in a concentration-dependent manner. The IC50 values are shown in Table 2, along with the analog substitutions.
Target sequence in this assay (C7FF04 1-392 limits assumed): as the sequence (C7FF04 1-392) above

| SMILES | mode of action (type of inhibition) (mushroom tyrosinase [1]) | Ki (mushroom tyrosinase [1]) | DPPH radical scavenging activity [2] | ABTS free radical scavenging activity (in words) [3] | IC50 (mushroom tyrosinase [4]) | potency of mushroom tyrosinase inhibition relative to kojic acid (mushroom tyrosinase [4]) | ABTS free radical scavenging activity [3] | enhancement of inhibitory activity relative to analog 4 (mushroom tyrosinase [4]; ratio of IC50 values versus analog 4) |
| --- | --- | --- | --- | --- | --- | --- | --- | --- |
| O=C1/C(=C/c2ccc(O)cc2)SC(=S)N1c1ccccc1 [Analog 1, (Z)-5-(4-Hydroxybenzylidene)-3-phenyl-2-thioxothiazolidin-4-one] | competitive | 4670 nM | 14.7% | weak | 1450 ± 40 nM | 12 fold | – | – |
| O=C1/C(=C/c2ccc(O)c(O)c2)SC(=S)N1c1ccccc1 [Analog 2, (Z)-5-(3,4-Dihydroxybenzylidene)-3-phenyl-2-thioxothiazolidin-4-one] | competitive | 3180 nM | 92.2% | – | 1380 ± 110 nM | – | 96.9% | – |
| O=C1/C(=C/c2ccc(O)cc2O)SC(=S)N1c1ccccc1 [Analog 3, (Z)-5-(2,4-Dihydroxybenzylidene)-3-phenyl-2-thioxothiazolidin-4-one] | competitive | 708 nM | 57.0% | – | 590 ± 30 nM | 29 fold | 82.0% | – |
| COc1ccc(/C=C2\SC(=S)N(c3ccccc3)C2=O)cc1O [Analog 6, (Z)-5-(3-Hydroxy-4-methoxybenzylidene)-3-phenyl-2-thioxothiazolidin-4-one] | competitive | 3230 nM | 27.2% | – | 1880 ± 700 nM | – | – | 43 fold |
